Assay results published in ChEMBL document CHEMBL4680185, “Discovery of novel cyclin-dependent kinase (CDK) and histone deacetylase (HDAC) dual inhibitors with potent in vitro and in vivo anticancer activity” (Eur J Med Chem, 2020).
Calls of active or inactive are those of the source. No cut-off for these calls is given here.

Key:
[1] = target: Histone deacetylase (Homo sapiens) (UniProt Q13547+O15379+Q9UBN7+Q92769+Q9UQL6+Q8WUI4+Q9BY41+Q96DB2+P56524+Q9UKV0+Q969S8); assay: Inhibition of HDAC in human A375 cells assessed as increase in acetylation of H3K9 at 1 uM measured after 12 hr by DAPI staining based immunofluorescence analysis; assay type: cell-based; conditions: A-375
[2] = Tmax in ICR mouse at 20 mg/kg, ip by LC-MS/MS analysis; assay type: ADME, organism-based; conditions: in vivo
[3] = target: Cyclin-dependent kinase 4/cyclin D1 (Homo sapiens, UniProt P11802); assay: Inhibition of recombinant human full length CDK4/cyclin D1 expressed in Sf9 cells incubated for 10 mins by ADP-Glo reagent assay
Cyclin-dependent kinase 4/cyclin D1, sequence (P11802 whole entry): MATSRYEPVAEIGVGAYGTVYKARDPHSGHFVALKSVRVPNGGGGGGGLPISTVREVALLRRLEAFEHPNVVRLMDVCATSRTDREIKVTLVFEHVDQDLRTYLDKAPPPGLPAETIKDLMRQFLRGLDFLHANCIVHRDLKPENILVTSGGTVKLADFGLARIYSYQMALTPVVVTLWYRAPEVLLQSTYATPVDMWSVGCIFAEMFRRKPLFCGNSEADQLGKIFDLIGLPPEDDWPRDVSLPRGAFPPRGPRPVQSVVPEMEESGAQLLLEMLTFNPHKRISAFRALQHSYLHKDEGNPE
Cyclin-dependent kinase 4/cyclin D1, sequence (P24385 whole entry, further chain): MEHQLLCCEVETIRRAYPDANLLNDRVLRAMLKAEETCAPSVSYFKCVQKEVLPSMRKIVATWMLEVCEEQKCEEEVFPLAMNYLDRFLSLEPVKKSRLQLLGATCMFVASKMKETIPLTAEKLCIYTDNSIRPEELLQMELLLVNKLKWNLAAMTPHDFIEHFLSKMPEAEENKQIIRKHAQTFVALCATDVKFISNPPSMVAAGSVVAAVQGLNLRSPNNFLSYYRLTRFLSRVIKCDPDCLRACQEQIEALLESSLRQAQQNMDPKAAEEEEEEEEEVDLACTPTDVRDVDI

HeLa [4] = assay: Induction of apoptosis in human HeLa cells assessed as number of apoptotic cells at 0.5 to 2 uM incubated for 48 hrs by annexin V-FITC/PI based flow cytometric analysis; assay type: functional, cell-based; conditions: dose 0.5-2 µM
A-375 [5] = assay: Induction of apoptosis in human A375 cells assessed as number of apoptotic cells at 2 uM incubated for 48 hrs by annexin V-FITC/PI based flow cytometric analysis relative to control; assay type: functional
A-375 [6] = assay: Cell cycle arrest in human A375 cells assessed as increase in number of cells at G2/M phase at 0.5 to 2 uM incubated for 24 hrs by propidium iodide staining based flow cytometry; assay type: functional; conditions: dose 0.5-2 µM
HCT-116 [7] = assay: Cell cycle arrest in human HCT116 cells assessed as increase in number of cells at G2/M phase at 0.5 to 2 uM incubated for 24 hrs by propidium iodide staining based flow cytometry; assay type: functional; conditions: dose 0.5-2 µM
A-375 [8] = assay: cells; assay type: functional, cell-based; conditions: Homo sapiens, A-375, 72 h
Description: Antiproliferative activity against human A375 cells assessed as inhibition of cell growth incubated for 72 hrs by CCK-8 assay

NCI-H460 [9] = assay: cells; assay type: functional; conditions: Homo sapiens, time 72 hrs, read-out: GI
A-375 [10] = assay: Cell cycle arrest in human A375 cells assessed as increase in number of cells at G2/M phase at 2 uM incubated for 24 hrs by propidium iodide staining based flow cytometry (reference value: 1.13%); assay type: functional
[11] = target: T1, Protein deacetylase HDAC6 (Homo sapiens, UniProt Q9UBN7); assay: Inhibition of human recombinant HDAC6 preincubated for 10 mins followed by addition of substrate fluor De Lys SIRT1 deacetylase measured after 30 mins by fluorescent plate reader analysis
T1 sequence (Q9UBN7 whole entry): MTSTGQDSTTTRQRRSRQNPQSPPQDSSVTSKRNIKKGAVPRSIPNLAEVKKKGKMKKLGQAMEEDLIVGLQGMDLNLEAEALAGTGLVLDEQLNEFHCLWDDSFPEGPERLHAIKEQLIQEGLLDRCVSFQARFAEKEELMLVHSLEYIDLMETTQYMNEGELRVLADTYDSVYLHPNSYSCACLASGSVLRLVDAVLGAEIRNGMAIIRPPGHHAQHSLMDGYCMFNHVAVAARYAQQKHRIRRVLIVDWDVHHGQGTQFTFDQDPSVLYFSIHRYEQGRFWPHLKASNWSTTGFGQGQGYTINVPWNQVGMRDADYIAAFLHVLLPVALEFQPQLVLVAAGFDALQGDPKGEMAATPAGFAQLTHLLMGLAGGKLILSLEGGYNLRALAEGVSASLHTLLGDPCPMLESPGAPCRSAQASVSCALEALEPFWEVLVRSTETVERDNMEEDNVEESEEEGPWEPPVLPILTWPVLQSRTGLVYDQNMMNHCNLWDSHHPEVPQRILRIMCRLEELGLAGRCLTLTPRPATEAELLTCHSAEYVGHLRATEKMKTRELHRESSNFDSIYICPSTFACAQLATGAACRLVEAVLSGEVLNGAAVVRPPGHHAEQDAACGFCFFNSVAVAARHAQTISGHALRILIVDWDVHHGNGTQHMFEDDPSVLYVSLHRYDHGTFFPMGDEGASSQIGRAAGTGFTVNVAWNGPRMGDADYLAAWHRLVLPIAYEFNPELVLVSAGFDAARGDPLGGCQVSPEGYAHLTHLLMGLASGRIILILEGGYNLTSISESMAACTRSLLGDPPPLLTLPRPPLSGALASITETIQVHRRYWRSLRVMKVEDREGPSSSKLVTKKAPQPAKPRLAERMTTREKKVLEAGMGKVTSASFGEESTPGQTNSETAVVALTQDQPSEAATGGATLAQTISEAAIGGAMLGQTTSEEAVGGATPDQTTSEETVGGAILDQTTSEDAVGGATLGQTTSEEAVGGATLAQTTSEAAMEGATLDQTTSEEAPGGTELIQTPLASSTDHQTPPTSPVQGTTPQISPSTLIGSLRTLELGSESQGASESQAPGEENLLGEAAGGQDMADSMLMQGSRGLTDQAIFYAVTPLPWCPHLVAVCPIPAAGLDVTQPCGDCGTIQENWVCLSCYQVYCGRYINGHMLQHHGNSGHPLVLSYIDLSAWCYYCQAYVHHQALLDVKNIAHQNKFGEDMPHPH

NCI-H460 [12] = assay: cells; assay type: functional; conditions: Homo sapiens, time 72 hrs, read-out: GI; remark: listed apart in the source
[13] = AUC (0 to infinity) in ICR mouse at 20 mg/kg, ip by LC-MS/MS analysis; assay type: ADME, organism-based; set-up: time infinity, route intraperitoneal, dose 20 mg/kg; conditions: in vivo
HeLa [14] = assay: Cell cycle arrest in human HeLa cells assessed as increase in number of cells at G2/M phase at 0.5 to 2 uM incubated for 24 hrs by propidium iodide staining based flow cytometry; assay type: functional; conditions: dose 0.5-2 µM
HeLa [15] = assay: cells; assay type: functional, cell-based; conditions: Homo sapiens, 72 h
Description: Antiproliferative activity against human Hela cells assessed as inhibition of cell growth incubated for 72 hrs by CCK-8 assay

NCI-H460 [16] = assay: cells; assay type: functional, cell-based; conditions: Homo sapiens, NCI-H460, 72 h
Description: Antiproliferative activity against human H460 cells assessed as inhibition of cell growth incubated for 72 hrs by CCK-8 assay

[17] = Half life in ICR mouse at 20 mg/kg, ip by LC-MS/MS analysis; assay type: ADME, organism-based; conditions: in vivo
HCT-116 [18] = assay: cells; assay type: functional; conditions: Homo sapiens, time 72 hrs, read-out: GI
NCI-H460 [19] = assay: Induction of apoptosis in human H460 cells assessed as number of apoptotic cells at 0.5 to 2 uM incubated for 48 hrs by annexin V-FITC/PI based flow cytometric analysis; assay type: functional, cell-based; conditions: dose 0.5-2 µM
[20] = target: Histone deacetylase 3/NCoR1 (Homo sapiens, UniProt O15379); assay: Inhibition of human recombinant HDAC3/NCOR1 complex preincubated for 10 mins followed by addition of substrate fluor De Lys SIRT1 deacetylase measured after 30 mins by fluorescent plate reader analysis; assay type: protein-complex assay
Histone deacetylase 3/NCoR1, sequence (O15379 whole entry): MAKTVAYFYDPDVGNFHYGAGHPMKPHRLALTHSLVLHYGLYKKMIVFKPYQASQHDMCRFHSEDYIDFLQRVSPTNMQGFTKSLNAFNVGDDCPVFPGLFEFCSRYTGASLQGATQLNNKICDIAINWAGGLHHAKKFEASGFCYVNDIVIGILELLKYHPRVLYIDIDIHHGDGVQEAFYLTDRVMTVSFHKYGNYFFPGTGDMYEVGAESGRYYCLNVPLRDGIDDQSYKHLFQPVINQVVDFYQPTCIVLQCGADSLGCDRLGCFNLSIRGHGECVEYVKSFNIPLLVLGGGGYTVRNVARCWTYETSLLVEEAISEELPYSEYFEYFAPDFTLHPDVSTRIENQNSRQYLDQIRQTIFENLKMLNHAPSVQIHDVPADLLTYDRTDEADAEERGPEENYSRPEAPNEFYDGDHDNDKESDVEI
Histone deacetylase 3/NCoR1, sequence (O75376 whole entry, further chain): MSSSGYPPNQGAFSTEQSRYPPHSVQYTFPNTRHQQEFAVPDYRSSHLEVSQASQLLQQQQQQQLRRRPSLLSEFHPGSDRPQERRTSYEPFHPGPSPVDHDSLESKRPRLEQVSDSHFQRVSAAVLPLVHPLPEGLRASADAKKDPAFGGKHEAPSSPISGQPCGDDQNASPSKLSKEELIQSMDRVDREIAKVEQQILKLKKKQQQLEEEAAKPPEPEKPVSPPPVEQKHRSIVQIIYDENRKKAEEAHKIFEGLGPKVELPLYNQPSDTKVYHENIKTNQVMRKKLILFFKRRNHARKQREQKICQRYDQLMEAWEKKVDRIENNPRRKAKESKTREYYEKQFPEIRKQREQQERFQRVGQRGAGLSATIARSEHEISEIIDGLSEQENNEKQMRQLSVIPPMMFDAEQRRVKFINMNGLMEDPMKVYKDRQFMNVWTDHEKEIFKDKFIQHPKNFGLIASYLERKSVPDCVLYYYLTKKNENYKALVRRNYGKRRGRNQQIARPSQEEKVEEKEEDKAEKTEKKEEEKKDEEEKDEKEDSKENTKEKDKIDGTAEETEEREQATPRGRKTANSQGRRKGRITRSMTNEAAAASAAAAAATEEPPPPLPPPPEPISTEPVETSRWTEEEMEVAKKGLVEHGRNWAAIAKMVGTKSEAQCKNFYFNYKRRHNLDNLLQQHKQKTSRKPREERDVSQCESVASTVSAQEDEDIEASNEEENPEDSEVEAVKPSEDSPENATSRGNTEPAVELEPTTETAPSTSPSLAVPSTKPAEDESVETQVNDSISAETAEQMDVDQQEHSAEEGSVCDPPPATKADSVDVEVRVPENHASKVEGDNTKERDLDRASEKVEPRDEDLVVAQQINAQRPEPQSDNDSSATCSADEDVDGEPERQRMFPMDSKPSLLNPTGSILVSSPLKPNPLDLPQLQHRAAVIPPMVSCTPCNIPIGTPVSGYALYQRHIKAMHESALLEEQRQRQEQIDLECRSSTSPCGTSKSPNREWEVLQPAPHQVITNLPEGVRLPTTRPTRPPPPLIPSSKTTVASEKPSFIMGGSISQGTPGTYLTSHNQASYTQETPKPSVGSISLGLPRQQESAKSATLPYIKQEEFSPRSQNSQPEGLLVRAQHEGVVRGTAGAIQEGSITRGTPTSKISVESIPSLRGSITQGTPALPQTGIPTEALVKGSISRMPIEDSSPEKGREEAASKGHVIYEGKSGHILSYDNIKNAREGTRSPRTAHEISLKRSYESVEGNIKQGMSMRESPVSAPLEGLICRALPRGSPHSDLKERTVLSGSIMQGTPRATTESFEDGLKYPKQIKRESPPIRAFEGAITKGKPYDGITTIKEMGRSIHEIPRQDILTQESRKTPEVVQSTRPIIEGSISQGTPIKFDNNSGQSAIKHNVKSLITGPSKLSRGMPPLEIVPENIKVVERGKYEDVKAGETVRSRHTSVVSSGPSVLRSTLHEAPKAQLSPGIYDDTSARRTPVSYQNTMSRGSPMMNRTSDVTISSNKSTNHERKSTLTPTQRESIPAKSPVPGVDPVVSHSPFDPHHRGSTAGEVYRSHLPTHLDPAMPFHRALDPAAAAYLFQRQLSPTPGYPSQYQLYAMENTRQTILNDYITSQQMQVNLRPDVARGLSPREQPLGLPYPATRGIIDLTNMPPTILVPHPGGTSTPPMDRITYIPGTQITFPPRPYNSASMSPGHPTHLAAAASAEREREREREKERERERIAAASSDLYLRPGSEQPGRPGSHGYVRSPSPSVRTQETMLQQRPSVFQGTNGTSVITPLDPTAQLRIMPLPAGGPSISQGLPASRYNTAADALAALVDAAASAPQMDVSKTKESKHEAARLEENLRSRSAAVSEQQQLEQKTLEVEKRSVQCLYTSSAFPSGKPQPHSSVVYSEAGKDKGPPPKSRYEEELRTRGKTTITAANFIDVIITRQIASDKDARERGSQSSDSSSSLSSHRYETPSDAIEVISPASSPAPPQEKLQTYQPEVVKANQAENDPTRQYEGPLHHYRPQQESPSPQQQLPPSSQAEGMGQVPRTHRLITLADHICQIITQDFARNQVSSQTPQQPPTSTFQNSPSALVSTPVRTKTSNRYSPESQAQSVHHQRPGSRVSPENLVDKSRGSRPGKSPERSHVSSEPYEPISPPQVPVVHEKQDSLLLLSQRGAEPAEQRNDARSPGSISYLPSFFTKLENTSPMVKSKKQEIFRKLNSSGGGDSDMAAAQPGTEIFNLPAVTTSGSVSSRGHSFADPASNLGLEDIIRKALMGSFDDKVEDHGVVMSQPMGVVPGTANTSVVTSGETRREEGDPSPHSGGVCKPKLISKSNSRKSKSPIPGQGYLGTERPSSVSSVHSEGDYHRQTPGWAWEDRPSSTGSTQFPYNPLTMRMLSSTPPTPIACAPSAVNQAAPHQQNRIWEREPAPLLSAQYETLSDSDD

Histone deacetylase 1 = Histone deacetylase 1 (Homo sapiens, UniProt Q13547); assay: Inhibition of human recombinant HDAC1 preincubated for 10 mins followed by addition of substrate fluor De Lys SIRT1 deacetylase measured after 30 mins by fluorescent plate reader analysis
Histone deacetylase 1, sequence (Q13547 whole entry): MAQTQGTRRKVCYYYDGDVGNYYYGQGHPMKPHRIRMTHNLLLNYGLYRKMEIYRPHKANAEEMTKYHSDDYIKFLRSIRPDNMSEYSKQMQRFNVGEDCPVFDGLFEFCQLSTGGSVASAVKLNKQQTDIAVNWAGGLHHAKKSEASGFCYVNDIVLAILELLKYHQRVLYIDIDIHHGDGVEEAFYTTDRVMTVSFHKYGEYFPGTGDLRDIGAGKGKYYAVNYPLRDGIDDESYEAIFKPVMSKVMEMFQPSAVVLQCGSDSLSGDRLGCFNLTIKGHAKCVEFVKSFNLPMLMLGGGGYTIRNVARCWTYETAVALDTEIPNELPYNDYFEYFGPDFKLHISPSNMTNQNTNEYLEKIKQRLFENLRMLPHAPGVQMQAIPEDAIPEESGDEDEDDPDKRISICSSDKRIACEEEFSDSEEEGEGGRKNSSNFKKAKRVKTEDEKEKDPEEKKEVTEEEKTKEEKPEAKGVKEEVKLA

A-375 [21] = assay: Antimigratory activity against human A375 cells assessed as inhibition of cell migration at 0.25 uM measured after 48 hrs by cell scratch assay; assay type: functional, cell-based
CDK6/cyclin D3 = CDK6/cyclin D3 (Homo sapiens, UniProt Q00534); assay: Inhibition of recombinant human full length CDK6/cyclin D3 incubated for 10 mins by ADP-Glo reagent assay; assay type: protein-complex assay
CDK6/cyclin D3, sequence (P30281 whole entry): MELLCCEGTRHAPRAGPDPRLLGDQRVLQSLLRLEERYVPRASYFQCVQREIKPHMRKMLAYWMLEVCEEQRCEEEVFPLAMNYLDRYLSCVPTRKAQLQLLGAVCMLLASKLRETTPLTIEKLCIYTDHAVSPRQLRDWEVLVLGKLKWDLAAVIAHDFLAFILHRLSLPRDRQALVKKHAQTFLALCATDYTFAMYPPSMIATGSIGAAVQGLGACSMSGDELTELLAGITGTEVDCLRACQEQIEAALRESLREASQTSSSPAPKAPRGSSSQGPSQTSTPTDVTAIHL
CDK6/cyclin D3, sequence (Q00534 whole entry): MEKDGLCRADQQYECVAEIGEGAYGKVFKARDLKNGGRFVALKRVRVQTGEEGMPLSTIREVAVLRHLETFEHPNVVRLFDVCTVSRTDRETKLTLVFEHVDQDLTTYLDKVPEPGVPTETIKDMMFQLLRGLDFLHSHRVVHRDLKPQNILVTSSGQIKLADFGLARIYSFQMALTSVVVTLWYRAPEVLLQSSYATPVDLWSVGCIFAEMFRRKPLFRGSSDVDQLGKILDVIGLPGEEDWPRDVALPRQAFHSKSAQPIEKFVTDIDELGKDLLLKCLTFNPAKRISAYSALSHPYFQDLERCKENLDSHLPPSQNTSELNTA

HCT-116 [22] = assay: cells; assay type: functional, cell-based; conditions: Homo sapiens, HCT-116, 72 h
Description: Antiproliferative activity against human HCT116 cells assessed as inhibition of cell growth incubated for 72 hrs by CCK-8 assay

Row | inhibition [1] | Tmax [2] | IC50 [3] | IC50 (A-375 [8]) | IC50 [11] | AUC [13] | IC50 (HeLa [15]) | IC50 (NCI-H460 [16]) | t1/2 [17] | IC50 [20] | Structure (SMILES) | Activity (HeLa [4]) | Activity (A-375 [5]) | Activity (A-375 [6]) | Activity (HCT-116 [7]) | inhibition of growth at 2 µM (NCI-H460 [9]) | Activity (A-375 [10]) | inhibition of growth at 8 µM (NCI-H460 [12]) | Activity (HeLa [14]) | inhibition of growth at 2 µM (HCT-116 [18]) | Activity (NCI-H460 [19]) | also measured
1 | Active | 1 h | > 1 µM | 1.6 µM | > 1 µM | 7200 ng·h/mL | 3.15 µM | 2.63 µM | 1.63 h | > 1 µM | Nc1ccccc1NC(=O)Cc1ccc(NC(=O)c2n[nH]cc2NC(=O)c2c(Cl)cccc2Cl)cc1 | Active | 73.08% | Active | Active | 57.3% | 66.48% | 67.4% | Active | 72.9% | Active | IC50 (Histone deacetylase 1): 0.24 µM; inhibition (A-375 [21]): Active; IC50 (CDK6/cyclin D3): > 1 µM; IC50 (HCT-116 [22]): 1.45 µM
2 | Active | 2 h | > 1 µM | 1.2 µM | > 1 µM | 30700 ng·h/mL | 1.83 µM | 4.19 µM | 2.61 h | 0.045 µM | Nc1ccccc1NC(=O)c1ccc(CNC(=O)c2n[nH]cc2NC(=O)c2c(Cl)cccc2Cl)cc1 | Active | 97.22% | Active | Active | 32.8% | 57.74% | 78.3% | Active | 73.8% | Active | IC50 (Histone deacetylase 1): 0.0064 µM; inhibition (A-375 [21]): Active; IC50 (CDK6/cyclin D3): > 1 µM; IC50 (HCT-116 [22]): 0.71 µM
